Results reported in patent US20100184644A1, “MUCOSAL REPAIR BY TFF DIMER PEPTIDES” (priority 2001, published 2010).
No end group written: not given here.

Assays:
[1] = test system: mucin I (crude mucin, type II from porcine stomach); assay: Oscillatory rheometer measurement of mucin solution and mucin/TFF3 dimer gel-like material; conditions: for Elastic modules G′ / Viscous modulus G″: 2 ml 10% (w/v) mucin I + 10 mg TFF3 dimer in 0.4 ml water, 30 min, 20° C.
Experimental: FIG. 3. Oscillatory measurement of mucin solution (a) and mucin/TFF3 dimer peptide gel-like material (b). 2 ml of 10% (w/v) mucin I dissolved in 0.05% (w/v) sodiumazide was added 0.4 ml of water (a) or 0.4 ml of water containing 10 mg TFF3 dimer peptide (b). After 30 min at 20° C. a sinosoidally varying stress was applied and the strain response was detected at different frequencies. The complex viscosity (η*) ? the elastic modulus (G′) ? and the viscous modulus (G″) ? was calculated and plotted as a function of different frequencies.
(§1) Rheological measurements. Rheological properties were measured by the use of a rotational Reologica Rheometer (Reologica Instriments AB, Lund, Sweden). The instrument is equipped with a stainless steel C40 4 cone-plate (40 mm diameter plate with an angle of 4 degree) requiring a sample volume of at least 1.2 ml. The instrument was operated using instrument standard software (Version 3.6) allowing several different types of measurements. In the present study we have used the measuring programs: Constant Rate (viscosity and stress as a function of shear rate), Oscillation (complex viscosity, elastic modulus and viscous modulus at different frequencies) and Oscillation Stress Sweep (to identify the stress range inside which the measurement results are linear i.e. independent of the applied stress).
In order to characterise the mucin/TFF dimer peptide gel-like structure, the technique of oscillatory measurement in which the gel-like material are subjected to a sinusoidaily varying stress is applied and the strain response is measured. Before this measurement is carried out an oscillation stress sweep programme is used to define the so-called linear viscoelastic region. Inside this region no change of the mucin/TFF dimer peptide structure occurs and the relation between the applied stress and the measured quantities is linear.
This type of experiments allow the estimation of several rheological parameters as a function of frequency: complex viscosity η*, elastic modulus G′ and viscous modulus G″ (for detailed rheological theory see Barnes, H. A. (1989) An introduction to rheology. Elsevier and Ferguson, J. and Kemblowski, Z. (1991) Applied fluid rheology. Elsevier)

[2] = test system: mucin I (crude mucin, type II from porcine stomach); assay: Viscosity versus shear rate (constant rate rheometer programme); conditions: 2 ml 10% (w/v) mucin I + 7.05 mg TFF3 dimer; 30 min, 20° C.; FIG. 4
Experimental: FIG. 4. Viscosity versus shear rate of TFF3 dimer peptides. 2 ml 10% (w/v) mucin I dissolved in 0.05% sodiumazide was added 7.05 mg TFF3 dimer dissolved in water. After 30 min at 20° C. the viscosity was measured as function of shear rate using the software programme: “constant rate”. ? mucin I alone; Δ—Δ: mucin I+TFF3 dimer.
as §1

[3] = test system: dextran induced colitis; assay: Dextran induced colitis model, luminal TFF3; assay type: in vivo, rat
Source text: (§2) Methods: 32 female wistar rats weighing 200 g were used in the study. The effect of luminal TFF3 was investigated in two rat models of colitis—the Mitomycin C induced colitis model (Keshavarzian A. et al. J. Lab Clin. Med. 1992; 120:778-91) and the dextran induced colitis model (Mottet N K. Gastroenterology 1972; 62:1269-71). TFF3 was administrated directly into the proximal part of the colon by means of a soft polyethylene tube which in anaesthezised rats at a laparotomy, was inserted into the colonic lumen, secured by 6-0 silk sutures and lead subcutaneously to the neck region of the rat.
Dextran colitis: In 16 rats colitis was induced by means of dextran sulphate sodium 5% administered in the drinking water. Eight of the rats were given TFF3, 5 mg/kg in 0.5 ml H2O into the colonic tube, two times each day from the day before the initiation of dextran supplementation till day 9, where the rats were sacrificed. The 8 controls recieved NaCl. The rats were sacrificed by means of an overdose of barbiturate. The colon was fixed by intraluminal injection of 10% formalin, and after 10 minutes opened and suspended on a polyethylene plate. After further 24 hours fixation the specimens were flushed with water and surface stained with 0.3% Alcian Green 3BX. The colonic specimens were investigated by means of a Wild Photomacroscope—the extent of disease and the number of ulcerations were quantitated. For histologic analysis specimens were taken out (in a blinded way) from the proximal, middle and distal colon and embedded in paraffin. Histologic sections of 5 μm were stained with PAS-hematoxylin-aurentia. The severety of colitis was scored by means of a histologic colitis score (Williams K L. et al. Gastroenterology 2001; 120:925-37).

[4] = test system: Mitomycin C induced colitis; assay: Mitomycin C induced colitis model, luminal TFF3; assay type: in vivo, rat
Source text: as §2
Mitomycin C colitis: In 16 rats colitis was induced by means of Mitomycin C, 3.75 mg/kg. Eight of the rats were given TFF3, 5 mg/kg in 0.5 ml H2O, two times each day from day 4-7 into the colonic tube. The 8 controls received NaCl. The rats were sacrificed by means of an overdose of barbiturate 8 days after mitomycin administration. The colon was fixed by intraluminal injection of 10% formalin, and after 10 minutes opened and suspended on a polyethylene plate. […] The colonic specimens were investigated by means of a Wild Photomacroscope—the extent of disease and the number of ulcerations were quantitated. […] The severety of colitis was scored by means of a histologic colitis score (FIG. 5, Williams K L. et al. Gastroenterology 2001; 120:925-37).

Substance	Elastic modules G′ ([1]; 0.01 Hz)	Viscous modulus G″ ([1]; 0.01 Hz)	Elastic modules G′ ([1]; 0.1 Hz)	Viscous modulus G″ ([1]; 0.1 Hz)	Elastic modules G′ ([1]; 1 Hz)	Viscous modulus G″ ([1]; 1 Hz)	Elastic modulus and viscous modulus compared to the mucin solution ([1]; mucin/TFF3 dimer gel-like structure vs mucin solution)	Effect on the viscosity of the mucin I solution [2]	Overall colitis score (histologic) ([3]; rat, TFF3 5 mg/kg intraluminal twice daily till day 9, control (NaCl) 3.18, p<0.05)	Histologic colitis score in the midsegment of the colon ([3]; rat, TFF3 5 mg/kg intraluminal twice daily, control 1.8, p<0.05)	Severity of dextran induced colitis ([3]; rats, intraluminal treatment)	Overall colitis score (histologic) ([4]; rat, TFF3 5 mg/kg intraluminal twice daily day 4-7, control (NaCl) 10.8, p<0.01)	Severity of mitomycin induced colitis ([4]; rats, intraluminal treatment)
TFF3 dimer: dimer form of recombinant human TFF3; two TFF3 monomers linked by a disulfide bond between Cys57 of each monomer (EEYVGLSANQCAVPAKDRVDCGYPHVTPKECNNRGCCFDSRIPGVPWCFKPLQEAECTF; not fully specified (bridges); also: homodimer via disulfide between Cys57 of each monomer)	19 Pa	18 Pa	52 Pa	37 Pa	86 Pa	54 Pa	dramatically increased	significant effect	–	–	–	–	–
TFF3: trefoil factor 3 given intraluminally to rats; Example 2 does not state monomer or dimer form (EEYVGLSANQCAVPAKDRVDCGYPHVTPKECNNRGCCFDSRIPGVPWCFKPLQEAECTF; not fully specified (bridges); cysteine pairing not given here; UniProt Q07654 22-80, looked up)	–	–	–	–	–	–	–	–	1.1	0.4	reduces the severity	3.4	reduces the severity
